Values quoted from earlier work, collected in patent US20220273628A1, “EFFECTS OF LYSERGIC ACID DIETHYLAMIDE (LSD) AND OF LSD ANALOGS TO ASSIST PSY[…] G[…] DISORDER OR OTHER ANXIETY NOT RELATED TO LIFE-T[…]” (Universitätsspital Basel, priority 2021, published 2022).

Experiments:
5-HT2A receptor = 5-HT2A receptor (Homo sapiens, UniProt P28223); details: cited from earlier work
[1] = test system: patients with treatment-resistant depression; details: 12 patients, cited from earlier work

Sequence of 5-HT2A receptor (P28223 whole entry): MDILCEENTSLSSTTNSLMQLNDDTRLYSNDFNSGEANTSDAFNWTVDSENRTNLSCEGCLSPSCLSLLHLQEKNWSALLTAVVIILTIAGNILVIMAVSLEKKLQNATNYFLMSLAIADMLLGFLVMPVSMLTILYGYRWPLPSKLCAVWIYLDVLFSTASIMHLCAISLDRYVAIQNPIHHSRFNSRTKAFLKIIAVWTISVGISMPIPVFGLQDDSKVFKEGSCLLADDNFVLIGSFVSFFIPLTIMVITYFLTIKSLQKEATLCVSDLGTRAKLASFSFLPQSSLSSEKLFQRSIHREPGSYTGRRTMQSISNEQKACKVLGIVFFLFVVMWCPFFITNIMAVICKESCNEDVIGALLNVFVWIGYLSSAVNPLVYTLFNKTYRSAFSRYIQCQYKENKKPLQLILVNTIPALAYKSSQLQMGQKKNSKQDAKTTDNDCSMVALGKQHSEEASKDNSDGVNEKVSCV

Structure (SMILES) | activity at the 5-HT2A receptor (5-HT2A receptor) | transient anxiety during drug onset ([1]; 10 mg and 25 mg) | mild and transient nausea [1] | transient confusion or thought disorder [1] | transient headache [1]
COc1cc(CCN)cc(OC)c1OC [mescaline] | agonists | – | – | – | –
CN(C)CCc1c[nH]c2ccccc12 [DMT, N,N-dimethyltryptamine] | agonists | – | – | – | –
CN(C)CCc1c[nH]c2cccc(OP(=O)(O)O)c12 [psilocybin] | – | all patients | four | nine | four
